Assay results as given in article PMC7038160, “Design, Synthesis, and Evaluation of Acetylcholinesterase and Butyrylcholinesterase Dual-Target Inhibitors against Alzheimer’s Diseases” (Molecules, 2020).
Entries after “also recorded” stand apart in the source; their conditions may differ.

Assays:
[1] = biological target: T1, AChE from Electrophorus electricus (eeAChE) (Electrophorus electricus, UniProt O42275); experiment: biochemical; assay type: biochemical; conditions: for SI (selectivity index = AChE IC50/BChE IC50): eeAChE IC50 / eqBChE IC50; for IC50 / AChE IR (inhibitory rate): eeAChE from electric eel; for IC50: mean ± SEM of triplicate independent experiments; for AChE IR (inhibitory rate): compounds under 100 μM
T1 construct: purchased Sigma-Aldrich
Description: (§1) According to the method described by Ellman, the data were expressed by IC50 values.
(§2) The inhibitory activity of the target compound against AChE (from Electrophorus electricus (eeAChE), Sigma-Aldrich, Munich, Germany) and horse serum BChE (eqBChE, Sigma-Aldrich, Munich, Germany) were measured by Ellman’s method. In 96-well plates, a mixture of phosphate buffer (0.1 M, pH 8.0, […]), 5,5′-dithiobis-2-nitrobenzoic acid (DTNB, 60 μL), acetylcholinesterase or butyrylcholinesterase (20 μL, 5 IU/mL) and different concentrations of the compounds solution (30 μL) was pre-incubated for 5 min and then substrates (acetylthiocholine iodide or butyrylthiocholine iodide, 20 μL) were added.
(§3) The measurement of each concentration for each compound was detected in triplicate. GraphPad Prism 6.0 (GraphPad Software, Inc., La Jolla, CA, USA) was used for data processing. The inhibition curve was fitted by plotting the logarithm of the concentration of the tested compounds with the percentage of enzyme activity (reference to 100%). The (IC50) value was calculated according to the inhibition curve and the data were shown in the layout of mean ± SEM by GraphPad Prism 6.0.

[2] = biological target: T2, horse serum BChE (eqBChE) (Equus caballus, UniProt P81908); experiment: biochemical; assay type: biochemical; conditions: eqBChE from horse serum; for IC50: mean ± SEM of triplicate independent experiments; for BChE IR (inhibitory rate): compounds under 100 μM
T2 construct: horse serum BChE (eqBChE, Sigma-Aldrich, Munich, Germany); purchased Sigma-Aldrich; host or cells: horse serum
Description: as §1, §2, §3

PC12 cells = experiment: Cytotoxicity in PC12 cells (MTT assay); assay type: cell-based; conditions: 10, 20, 30 and 50 μM, 24 h
Description: We focused on the cytotoxicity of the synthetic compounds. The reason for using PC12 is that our compounds act on the central nervous system, so we need to find out whether the compound has a toxic effect on normal nerve cells. Compounds 6b, 6c, 6d, 10s, 8i, and 10v were selected as representative compounds to assess their potential cytotoxic effects.
Pheochromocytoma-derived cell line (PC12 cells) were grown in Dulbecco’s Modified Eagle Medium (DMEM) supplemented with 10% FBS at 37 °C in a humidified atmosphere containing 5% CO2. To carry out the experiment, cells (6 × 10^3 cells/well) were seeded in 96-well plate in complete medium. […]

eeAChE = biological target: T3, eeAChE (Electrophorus electricus, UniProt O42275); experiment: Kinetics of AChE inhibition (Lineweaver–Burk plots); assay type: biochemical, Electrophorus electricus (electric eel); conditions: substrate 90-904 μM
T3 construct: purchased Sigma-Aldrich
Description: (§4) To determine the kinetic types of AChE and BChE inhibition, compounds 8i and 10s were selected for kinetic studies. In each case, the kinetic types of enzyme inhibition were obtained by the modified Ellman’s method and the Lineweaver–Burk secondary plots. […] According to the result of molecular docking study.
(§5) Kinetic studies were performed in the same manner as the determination of ChEs inhibition, with substrate (ATC/BTC) concentrations of 90, 150, 226, 452 and 904 μM. The concentration of compound 8i was set to 0, 0.25, 0.5, 0.75, 1 μM, and the concentration of compound 10s was set to 1, 2.5, 5, 7.5, 10 μM. The enzymatic reaction was extended to 7 min for eeAChE and eqBChE before the determination of the absorption. The Vmax and Km values of Michaelis-Menten kinetics were calculated by nonlinear regression from the substrate-velocity curves using GraphPad Prism 6.0. Linear regression was used to fit the Lineweaver–Burk plot.

eqBChE [3] = biological target: T4, eqBChE (Equus caballus, UniProt P81908); experiment: Kinetics of BChE inhibition (Lineweaver–Burk plots); assay type: biochemical; conditions: substrate 90-904 μM
T4 construct: horse serum BChE (eqBChE, Sigma-Aldrich, Munich, Germany); purchased Sigma-Aldrich; host or cells: horse serum
Description: as §4, §5

eqBChE [4] = biological target: T4, eqBChE; parameters: method as in earlier work; conditions: lead compound from previous virtual screening; cited from earlier work

T1 sequence (O42275 24-633): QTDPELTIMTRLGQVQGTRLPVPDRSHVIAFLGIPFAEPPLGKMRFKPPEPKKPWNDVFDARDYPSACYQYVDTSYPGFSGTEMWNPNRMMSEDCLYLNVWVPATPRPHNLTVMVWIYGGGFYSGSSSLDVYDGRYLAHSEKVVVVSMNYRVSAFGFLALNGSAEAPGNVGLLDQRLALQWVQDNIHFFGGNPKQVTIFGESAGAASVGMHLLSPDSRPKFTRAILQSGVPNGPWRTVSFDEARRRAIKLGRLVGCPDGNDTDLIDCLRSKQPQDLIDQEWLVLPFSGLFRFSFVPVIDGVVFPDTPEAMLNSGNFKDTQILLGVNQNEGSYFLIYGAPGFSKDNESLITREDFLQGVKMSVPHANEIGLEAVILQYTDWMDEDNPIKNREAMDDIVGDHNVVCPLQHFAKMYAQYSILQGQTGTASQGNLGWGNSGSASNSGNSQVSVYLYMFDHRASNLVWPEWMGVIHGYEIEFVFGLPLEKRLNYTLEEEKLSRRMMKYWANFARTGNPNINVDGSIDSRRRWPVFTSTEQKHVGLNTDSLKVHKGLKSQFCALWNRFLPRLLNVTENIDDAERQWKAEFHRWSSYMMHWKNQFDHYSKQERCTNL
T2 sequence (P81908 whole entry): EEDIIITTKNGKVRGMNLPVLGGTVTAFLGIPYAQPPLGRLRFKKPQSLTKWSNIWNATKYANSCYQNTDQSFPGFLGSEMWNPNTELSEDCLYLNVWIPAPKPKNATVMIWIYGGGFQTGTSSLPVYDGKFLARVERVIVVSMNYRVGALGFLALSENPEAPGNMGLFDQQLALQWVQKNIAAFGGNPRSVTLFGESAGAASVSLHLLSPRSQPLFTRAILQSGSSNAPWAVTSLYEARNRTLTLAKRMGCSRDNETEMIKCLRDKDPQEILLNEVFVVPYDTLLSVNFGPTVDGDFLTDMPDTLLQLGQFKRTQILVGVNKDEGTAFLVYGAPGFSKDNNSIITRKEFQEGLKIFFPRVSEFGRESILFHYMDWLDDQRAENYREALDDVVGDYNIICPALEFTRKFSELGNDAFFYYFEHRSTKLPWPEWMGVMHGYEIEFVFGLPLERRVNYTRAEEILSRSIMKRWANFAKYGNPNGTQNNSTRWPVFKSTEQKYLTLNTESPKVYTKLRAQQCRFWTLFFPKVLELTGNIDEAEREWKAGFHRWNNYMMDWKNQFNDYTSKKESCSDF
T4 sequence (P81908 whole entry): as above
T3 sequence (O42275 24-633): as the sequence (O42275 24-633) above

Compound	SI (selectivity index = AChE IC50/BChE IC50) [1]	IC50 [1] [µM]	IC50 [2] [µM]	BChE IR (inhibitory rate) [2] [%]	AChE IR (inhibitory rate) [1]	also measured
O=C(NCC1CCN(Cc2ccccc2)CC1)c1ccc2[nH]ccc2c1 [Compound 6a, N-((1-Benzylpiperidin-4-yl)methyl)-1H-indole-5-carboxamide]	1.66	52.1 ± 30.2	31.4 ± 15.6			
O=C(NCC1CCN(Cc2ccccc2Cl)CC1)c1ccc2[nH]ccc2c1 [Compound 6b, N-((1-(2-Chlorobenzyl)piperidin-4-yl)methyl)-1H-Indole-5-carboxamide]	1.57	15 ± 6.17	9.56 ± 4.52			
O=C(NCC1CCN(Cc2ccccc2)CC1)c1ccc2[nH]ncc2c1 [Compound 6c, N-((1-Benzylpiperidin-4-yl)methyl)-1H-indazole-5-carboxamide]	0.25	9.06 ± 2.57	36.6 ± 17.5			cytotoxicity compared with Tacrine (PC12 cells): less toxic than Tacrine
O=C(NCC1CCN(Cc2ccccc2)CC1)c1ccc2[nH]cnc2c1 [Compound 6d, N-((1-Benzylpiperidin-4-yl)methyl)-1H-benzo[d]imidazole-5-carboxamide]	2.23	4.8 ± 0.68	2.15 ± 0.63			cytotoxicity compared with Tacrine (PC12 cells): less toxic than Tacrine
O=C(NCC1CCN(Cc2ccc(C(F)(F)F)cc2)CC1)c1ccc2[nH]cnc2c1 [Compound 6e, N-((1-(4-(Trifluoromethyl)benzyl)piperidin-4-yl)methyl)-1H-benzo[d]imidazole-5-carboxamide]		48.5 ± 36.2		39.88		
COc1ccc(CN2CCC(CNC(=O)c3ccc4[nH]nnc4c3)CC2)cc1 [Compound 6f, N-((1-(4-Methoxybenzyl)piperidin-4-yl)methyl)-1H-benzo[d][1,2,3]triazole-5-carboxamide]				49.63	43.07%	
O=C(NCC1CCN(Cc2ccccc2Cl)CC1)c1ccc2[nH]nnc2c1 [Compound 6g, N-((1-(2-Chlorobenzyl)piperidin-4-yl)methyl)-1H-benzo[d][1,2,3]triazole-5-carboxamide]	0.58	29.2 ± 16.4	49.9 ± 37.3			
O=C(NCC1CCN(Cc2ccc(C(F)(F)F)cc2)CC1)c1ccc2[nH]nnc2c1 [Compound 6h, N-((1-(4-(Trifluoromethyl)benzyl)piperidin-4-yl)methyl)-1H-benzo[d][1,2,3]triazole-5-carboxamide]		40.2 ± 27.6		30.71		
O=C1Cc2cc(C(=O)NCC3CCN(Cc4ccccc4)CC3)ccc2N1 [Compound 8i, N-((1-Benzylpiperidin-4-yl)methyl)-2-Oxoindoline-5-carboxamide]	1.39	0.39 ± 0.04	0.28 ± 0.1			kinetic type of AChE inhibition (eeAChE): mixed-type inhibition; kinetic type of BChE inhibition (eqBChE [3]): mixed-type inhibition; cytotoxicity compared with Tacrine (PC12 cells): lower than that of Tacrine; also recorded: less toxic than Tacrine; also recorded: lowest toxicity
O=C1Cc2cc(C(=O)NCC3CCN(Cc4ccccc4Cl)CC3)ccc2N1 [Compound 8j, N-((1-(2-Chlorobenzyl)piperidin-4-yl)methyl)-2-Oxoindoline-5-carboxamide]				22.87	14.69%	
COc1ccc(CN2CCC(CNC(=O)c3ccc4c(c3)CC(=O)N4)CC2)cc1 [Compound 8k, N-((1-(4-Methoxybenzyl)piperidin-4-yl)methyl)-2-Oxoindoline-5-carboxamide]				22.26	no	
O=C1Cc2cc(C(=O)NCC3CCN(Cc4ccc(C(F)(F)F)cc4)CC3)ccc2N1 [Compound 8l, 2-Oxo-N-((1-(4-(trifluoromethyl)benzyl)piperidin-4-yl)methyl)indoline-5-carboxamide]		21.5 ± 9.37		35.20		
Cc1ccc(S(=O)(=O)NCC2CCN(Cc3ccccc3)CC2)cc1 [Compound 10s, N-((1-Benzylpiperidin-4-yl)methyl)-4-methylbenzenesulfonamide]	1.03	4.24 ± 2.44	4.1 ± 3.74			kinetic type of AChE inhibition (eeAChE): same inhibition type; kinetic type of BChE inhibition (eqBChE [3]): same inhibition type; cytotoxicity compared with Tacrine (PC12 cells): slightly more toxic than Tacrine
Cc1ccc(S(=O)(=O)NCC2CCN(Cc3ccccc3Cl)CC2)cc1 [Compound 10t, N-((1-(2-Chlorobenzyl)piperidin-4-yl)methyl)-4-methylbenzenesulfonamide]	2.74	5.5 ± 2.56	2.01 ± 0.7			
COc1ccc(CN2CCC(CNS(=O)(=O)c3ccc(C)cc3)CC2)cc1 [Compound 10u, N-((1-(4-Methoxybenzyl)piperidin-4-yl)methyl)-4-methylbenzenesulfonamide]				18.31	11.61%	
Cc1ccc(S(=O)(=O)NCC2CCN(Cc3ccc(C(F)(F)F)cc3)CC2)cc1 [Compound 10v, 4-Methyl-N-((1-(4-(trifluoromethyl)benzyl)piperidin-4-yl)methyl)benzenesulfonamide]	1.01		7.14 ± 5.27			
COc1ccc(CN2CCC(CNC(=O)c3ccc4[nH]ncc4c3)CC2)cc1 [Compound 11b]					48.57%	
COc1ccc(CN2CCC(CNC(=O)c3ccc4[nH]cnc4c3)CC2)cc1 [Compound 11d]					18.81%	
O=C(CC1CCN(CCc2ccccc2)CC1)Nc1ccc2[nH]ccc2c1 [Compound 16a, N-(1H-Indol-5-yl)-2-(1-phenethylpiperidin-4-yl)acetamide]				23.49	8.61%	
O=C(CC1CCN(CCc2ccccc2Cl)CC1)Nc1ccc2[nH]ccc2c1 [Compound 16b, 2-(1-(2-Chlorophenethyl)piperidin-4-yl)-N-(1H-indol-5-yl)acetamide]				31.21	8.95%	
O=C(CC1CCN(CCc2ccccc2)CC1)Nc1ccc2[nH]cnc2c1 [Compound 16c, N-(1H-Benzo[d]imidazol-5-yl)-2-(1-phenethylpiperidin-4-yl)acetamide]				30.59	no inhibitory activity and no	
O=C(CC1CCN(CCc2ccccc2Cl)CC1)Nc1ccc2[nH]cnc2c1 [Compound 16d, N-(1H-Benzo[d]imidazol-5-yl)-2-(1-(2-chlorophenethyl)piperidin-4-yl)acetamide]				38.04	8.55%	
Cn1c(=O)n(C)c2cc(S(=O)(=O)NCC3CCN(Cc4ccc(F)cc4)CC3)ccc21 [Compound G801-0274]						IC50 (eqBChE [4]): 0.03 µM
